The record followed here is PubChem BioAssay (NCI).

Some test systems named below: MCF7 breast; EKVX NSCLC; RPMI-8226 leukemia; U251 CNS; HT29 colon; NCI-H460 lung; MALME-3M melanoma; SW-620 colon; DU-145 prostate; PC-3 prostate.
Holding throughout (experiment): growth of human tumour cells (NCI), 48 h

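Results reflect a 48-hour exposure of cells in 96-well plates to compound at five concentrations. At the GI50, growth is halved. At the TGI there is no net growth.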

`CCOc1ccc(N=Nc2ccc3cc(/C(C)=N/NC(=O)/C(C#N)=C\c4ccc(N(CCC#N)CCC#N)cc4)c(=O)oc3c2)cc1`: the TGI in the assay with MCF7 breast, with EKVX NSCLC, in the assay with RPMI-8226 leukemia, in the assay on U251 CNS, with HT29 colon and with NCI-H460 lung was greater than 10 µM each time. The TGI in the assay on MALME-3M melanoma, with SW-620 colon, in the assay on DU-145 prostate and in the assay on PC-3 prostate was greater than 10 µM each time.
With `CN(C)CCNc1c([N+](=O)[O-])sc2ccc(Cl)cc12`, the TGI in the assay on MCF7 breast is greater than 100 µM; with EKVX NSCLC, greater than 100 µM; in the assay with RPMI-8226 leukemia, greater than 100 µM; in the assay on U251 CNS, 78.3 µM; in the assay on HT29 colon, greater than 100 µM; with NCI-H460 lung, greater than 100 µM. Further, the TGI in the assay with MALME-3M melanoma, with SW-620 colon, with DU-145 prostate and in the assay with PC-3 prostate was greater than 100 µM in each case.
Turning to `O=c1[nH]c(=O)n(C2CC(O)C(CO)O2)cc1OC/C=C/Cc1ccccc1` (centres undefined), the TGI in the assay on MCF7 breast, in the assay with EKVX NSCLC, in the assay on RPMI-8226 leukemia, in the assay on U251 CNS, with HT29 colon and in the assay with NCI-H460 lung was greater than 100 µM throughout. Further, the TGI with MALME-3M melanoma, in the assay with DU-145 prostate and in the assay on PC-3 prostate was greater than 100 µM in each case.
As for `CC(=O)N(C)c1ccc(Nc2ccnc3ccc4nn(C)nc4c23)cc1`, the TGI is 46.6 µM in the assay with MCF7 breast; 76.1 µM in the assay on EKVX NSCLC; 46.9 µM in the assay with RPMI-8226 leukemia; greater than 100 µM in the assay with U251 CNS; greater than 100 µM with HT29 colon; 39.6 µM with MALME-3M melanoma. For the same compound, the results for the TGI with SW-620 colon, in the assay on DU-145 prostate and in the assay on PC-3 prostate were greater than 100 µM, 92.2 µM and greater than 100 µM, respectively.
With `CC1=C(C(=O)NC2CCCCC2)CC(C(=O)NC2CCCCC2)=C(C)N1`, the TGI in the assay with MCF7 breast, in the assay on EKVX NSCLC, with RPMI-8226 leukemia, with U251 CNS, in the assay with NCI-H460 lung and in the assay on MALME-3M melanoma was greater than 100 µM throughout. Further, the TGI with SW-620 colon, with DU-145 prostate and with PC-3 prostate was greater than 100 µM each time.
On to `COCC#C[C@@]1(O)CCCCC1CC(OC)OC` (some centres undefined), for which the TGI with MCF7 breast is greater than 100 µM; with EKVX NSCLC, greater than 100 µM; with RPMI-8226 leukemia it was 94.5 µM; in the assay on U251 CNS it was greater than 100 µM; in the assay with HT29 colon, greater than 100 µM; in the assay with NCI-H460 lung, greater than 100 µM. In addition, the TGI in the assay with MALME-3M melanoma, with DU-145 prostate and with PC-3 prostate was greater than 100 µM throughout.
On to `COC(=O)C1=C(C(=O)OC)SC(=C2SC3=C(SC(=C4SCCS4)S3)S2)S1`, for which the TGI in the assay with MCF7 breast, in the assay with EKVX NSCLC, with RPMI-8226 leukemia, with U251 CNS, with HT29 colon and in the assay with MALME-3M melanoma was greater than 100 µM throughout. In addition, the TGI in the assay on SW-620 colon, with DU-145 prostate and with PC-3 prostate was greater than 100 µM throughout.
For `COc1ccc2c(c1)-c1c(c3cc(OC)ccc3n1CCN(C)C)CC2`, the TGI was 28.9 µM in the assay on MCF7 breast; 31.2 µM in the assay on RPMI-8226 leukemia; 24.8 µM in the assay on U251 CNS; 19.1 µM in the assay on HT29 colon; 25.9 µM with NCI-H460 lung; 31 µM with MALME-3M melanoma. In addition, the TGI in the assay with SW-620 colon was 31.1 µM; with DU-145 prostate it was 26.7 µM; in the assay with PC-3 prostate it was 25.9 µM.
Turning to `CCCCCCCCCCCCNC(=O)CCC(NC(=O)c1ccc(N(C)Cc2cnc3nc(N)nc(N)c3n2)cc1)C(=O)NCCCCCCCCCCCC` (centres undefined), the TGI was greater than 100 µM with MCF7 breast; greater than 100 µM in the assay with EKVX NSCLC; greater than 100 µM in the assay on RPMI-8226 leukemia; 24.7 µM in the assay with U251 CNS; greater than 100 µM with HT29 colon; greater than 100 µM in the assay on MALME-3M melanoma. Moreover, the TGI in the assay on SW-620 colon, with DU-145 prostate and in the assay on PC-3 prostate was greater than 100 µM throughout.
For the compound `O=c1oc2ccccc2c(O)c1C=NC(=S)c1ccncc1`, the TGI with MCF7 breast, in the assay with EKVX NSCLC, with U251 CNS, with HT29 colon, with NCI-H460 lung and in the assay with SW-620 colon was greater than 100 µM in each case. The TGI with DU-145 prostate and in the assay on PC-3 prostate was greater than 100 µM throughout.
As for `O=C(CC(C(=O)c1cccs1)c1ccc2c(c1)OCO2)c1ccc(Br)cc1` (centres undefined), the TGI in the assay with MCF7 breast, in the assay on EKVX NSCLC, in the assay on RPMI-8226 leukemia, in the assay with U251 CNS, in the assay with NCI-H460 lung and in the assay with MALME-3M melanoma was greater than 100 µM in each case. Besides, the TGI in the assay on SW-620 colon, with DU-145 prostate and in the assay with PC-3 prostate was greater than 100 µM throughout.
Consider `CC(=O)C1(O)CCC2(O)C3(O)CC=C4CC(O)CCC4(C)C3CC(OC(=O)c3ccc(O)cc3)C12C` (centres undefined), for which the TGI in the assay on MCF7 breast, in the assay with EKVX NSCLC, with RPMI-8226 leukemia, in the assay with U251 CNS, with HT29 colon and in the assay on NCI-H460 lung was greater than 100 µM throughout. Besides, the TGI in the assay on SW-620 colon, in the assay with DU-145 prostate and in the assay on PC-3 prostate was greater than 100 µM throughout.
Regarding `CCCCCCc1cc2cc(-c3csc(-c4ccc(OC)cc4)n3)c(=O)oc2cc1O`, the TGI was 53.2 µM with MCF7 breast; 45.1 µM in the assay on EKVX NSCLC; greater than 100 µM with RPMI-8226 leukemia; 18.7 µM in the assay on U251 CNS; greater than 100 µM with HT29 colon; 41 µM in the assay on NCI-H460 lung. Besides, the values for the TGI in the assay with SW-620 colon, in the assay on DU-145 prostate and in the assay with PC-3 prostate were 34.3 µM, 33.6 µM and 41.5 µM, respectively.
As for `Cc1cn(CCCCCOC(=O)NC(CCCNC(N)=O)C(=O)O)c(=O)[nH]c1=O` (centres undefined), the TGI in the assay on MCF7 breast, in the assay with EKVX NSCLC, in the assay on RPMI-8226 leukemia, in the assay with U251 CNS, in the assay on HT29 colon and in the assay with NCI-H460 lung was greater than 100 µM throughout. Further, the TGI in the assay on SW-620 colon, in the assay on DU-145 prostate and in the assay on PC-3 prostate was greater than 100 µM each time.
`C[C@H](c1ccccc1)N1C(=O)[C@@H](OCc2ccccc2)[C@H]1[C@H](COC(=O)COCc1ccccc1)OCc1ccccc1`: the TGI in the assay with MCF7 breast was greater than 100 µM; in the assay on EKVX NSCLC, greater than 100 µM; in the assay on RPMI-8226 leukemia, greater than 100 µM; with U251 CNS it was greater than 100 µM; in the assay with MALME-3M melanoma it was 76.7 µM; in the assay on SW-620 colon it was greater than 100 µM. Also, the TGI with DU-145 prostate and in the assay on PC-3 prostate was greater than 100 µM in each case.
Take `COc1cccc(N2C(=O)CS(=O)(=O)C2c2cccc(Oc3ccccc3)c2)c1` (centres undefined): the TGI in the assay with MCF7 breast amounted to 10.6 µM; with EKVX NSCLC, 59.3 µM; with U251 CNS, 49.7 µM; in the assay with HT29 colon it was 89.3 µM; in the assay on NCI-H460 lung, 31.1 µM; in the assay with MALME-3M melanoma, 69.8 µM. In addition, the TGI in the assay on SW-620 colon was greater than 100 µM; with DU-145 prostate it was greater than 100 µM; with PC-3 prostate it was 85.8 µM.
For `CCN(CCCCCCCCCCN1CC(=O)N(CCCCCCCCCCN(CC)Cc2ccccc2OC)CC1=O)Cc1ccccc1OC`, the GI50 in the assay with MCF7 breast was 1.2 µM; with EKVX NSCLC it was 1.82 µM; in the assay on RPMI-8226 leukemia it was 0.812 µM; with U251 CNS, 1.15 µM; with NCI-H460 lung, 1.54 µM; in the assay on MALME-3M melanoma, 1.64 µM. For the same compound, the results for the GI50 with SW-620 colon, in the assay on DU-145 prostate and in the assay with PC-3 prostate were 1.75 µM, 1.39 µM and 1.14 µM, respectively. The TGI in the assay with MCF7 breast came out at 2.81 µM; with EKVX NSCLC it was 8.14 µM; with RPMI-8226 leukemia, 3.1 µM; with U251 CNS, 2.58 µM; with NCI-H460 lung, 3.62 µM; in the assay on MALME-3M melanoma, 3.47 µM. In addition, the TGI in the assay with SW-620 colon is 3.95 µM; in the assay with DU-145 prostate it was 2.78 µM; with PC-3 prostate it was 2.59 µM.
As to `O=[N+]([O-])/C(Cl)=C(/C(Cl)=C(Cl)Cl)N1CCCCC1`, the TGI turned out to be 17.4 µM with MCF7 breast; 39.7 µM with EKVX NSCLC; 18.2 µM in the assay with RPMI-8226 leukemia; 26.8 µM in the assay with U251 CNS; 29.5 µM in the assay on HT29 colon; 43 µM in the assay with NCI-H460 lung. Further, the TGI with MALME-3M melanoma worked out at 11.6 µM; with DU-145 prostate, 27 µM; with PC-3 prostate, 43.8 µM.
On to `CCOC(=O)Cn1nnc2cc(Nc3c(C)[n+]([O-])c4cc(F)c(OCC)cc4[n+]3[O-])ccc21`, for which the TGI in the assay with MCF7 breast, in the assay on EKVX NSCLC, in the assay on RPMI-8226 leukemia, with U251 CNS, in the assay with HT29 colon and with NCI-H460 lung was greater than 100 µM in each case. Moreover, the TGI in the assay on SW-620 colon, in the assay on DU-145 prostate and in the assay with PC-3 prostate was greater than 100 µM throughout.
`CC(O)CNC1=CC(=O)C(=O)c2ccccc21` (centres undefined): the TGI in the assay with MCF7 breast was 48.7 µM; in the assay on EKVX NSCLC, 40.2 µM; in the assay with RPMI-8226 leukemia, 48 µM; in the assay on U251 CNS, 30.6 µM; in the assay on NCI-H460 lung, 30.6 µM; in the assay on MALME-3M melanoma, 17.7 µM. Further, the figures for the TGI in the assay on SW-620 colon, in the assay on DU-145 prostate and with PC-3 prostate were 40.1 µM, 29.1 µM and greater than 100 µM, respectively.
